# According to patent US7202242B2, “Substituted 1 and 2-naphthol Mannich bases” (Gruenenthal GmbH, priority 1999, dated 2007):
# Test system: phenylquinone-induced writhing
# Assay: Analgesia test in the phenylquinone-induced writhing test in mice
# Format: in vivo
# Conditions: male NMRI mice; 10 mg/kg intravenous, 10 minutes before phenylquinone i.p.; writhing counted 5–20 minutes after phenylquinone
# Procedure: The in-depth investigation for analgesic activity was carried out in the phenylquinone-induced writhing in mice (modified by I. C. Hendershot, J. Forsaith, J. Pharmacol. Exp. Ther. 125, 237–240 (1959)). Male NMRI mice weighing 25–30 g were used for this. Groups of 10 animals per substance dose received 0.3 ml/mouse of a 0.02% aqueous solution of phenylquinone (phenylbenzoquinone, Sigma, Deisenhofen; preparation of the solution with the addition of 5% ethanol and storage in a water bath at 45° C.) administered intraperitoneally 10 minutes after intravenous administration of the test substances. The animals were placed individually in observation cages. The number of pain-induced stretching movements (so-called writhing reactions=straightening of the body with stretching of the hind extremities) were counted by means of a push-button counter for 5–20 minutes after the administration of phenylquinone. Animals which received only physiological saline solution were also run as a control.
# The substances were tested in the standard dose of 10 mg/kg. The inhibition of the writhing reactions by a substance was calculated according to the following equation: […]
# The in-depth investigation for analgesic activity was carried out in the phenylquinone-induced writhing in mice as described above.
row,SMILES,Inhibition of the writhing reaction in % [%]
1,"COc1ccc(COc2c(C(c3ccccc3)N(C)C)ccc3ccccc23)cc1 (stereo not drawn) [Example 37, {[1-(4-Methoxy-benzyloxy)-naphthalen-2-yl]-phenylmethyl}-dimethylamine]",40
2,"COc1ccc(COc2ccc3ccccc3c2C(c2ccccc2)N(C)C)cc1 (stereo not drawn) [Example 38, {[2-(4-Methoxybenzyloxy)-naphthalen-1-yl]-phenylmethyl}-dimethylamine]",81
3,"COc1ccc(C(=O)Oc2ccc3ccccc3c2C(c2ccccc2)N(C)C)cc1 (stereo not drawn) [Example 39, 4-Methoxybenzoic acid 1-(dimethylaminophenylmethyl)-naphthalen-2-yl ester]",21
4,"CN(C)C(c1ccccc1)c1c(OC(=O)c2ccccc2Cl)ccc2ccccc12 (stereo not drawn) [Example 40, 2-Chlorobenzoic acid 1-(dimethylaminophenylmethyl)-naphthalen-2-yl ester]",48
5,"Oc1ccc2ccccc2c1C(c1ccccc1)N1CCOCC1 (stereo not drawn) [Example 41, 1-(Morpholin-4-yl-phenylmethyl]-naphthalen-2-ol]",30
6,"Oc1ccc2ccccc2c1C(c1ccccc1)N1CCCCC1 (stereo not drawn) [Example 42, 1-(Phenylpiperidin-1-yl-methyl)-naphthalen-2-ol]",92
